# Experimental data from patent publication US12606546B2, “Small molecule inhibitors of calcium channel activity and uses thereof” (Arizona Board of Regents on Behalf of the University of …, priority 2020, dated 2026).
# Like-named read-outs stand apart in the source and are kept apart here.
# Tests used:
# [1] = tested on: high voltage activated calcium channels; experiment: Fura-2AM calcium imaging, 90 mM KCl-evoked Ca2+ influx in DRG neurons; conditions: separated enantiomers, data not shown
# [2] = tested on: total calcium current in small- to medium-sized DRG neurons; experiment: Whole-cell patch clamp of total Ca2+ currents in DRG neurons; type: cell-based, rat; conditions: for Activation V1/2 / Activation k (slope factor) / Inactivation V1/2 / Inactivation k (slope factor): Boltzmann fit, mean ± SEM; for peak calcium current density: overnight (DMSO −96.91±12.39); for reduction in Ca2+ currents at peak current density: overnight, compared to 0.1% DMSO
# Protocol: Recordings were obtained from acutely dissociated DRG neurons as described in Bellampalli et al. Patch-clamp recordings were performed at room temperature (22-24° C.). Currents were recorded using an EPC 10 Amplifier-HEKA (HEKA Elektronik, Ludwigshafen, Germany) linked to a computer with Patchmaster software. DRG neurons were incubated overnight (˜16-24 h) with 20 μM of 3-25-R and 3-14-3-S.
# For total calcium current (ICa^2+) recordings, the external solution consisted of the following (in mM): 110 N-methyl-D-glucamine, 10 BaCl2, 30 TEA-Cl, 10 HEPES, 10 glucose, 0.001 TTX (pH 7.29 adjusted with NaOH, and mOsm/L=310). Patch pipettes were filled with an internal solution containing (in mM): 150 […], 10 HEPES, 5 Mg-ATP, and 5 BAPTA, (pH 7.24 adjusted with CsOH, and from a holding potential of −90 mV to obtain the current-voltage (I-V) relation. Normalization of currents to each cell's capacitance (pF) was performed to allow for collection of current density data. For I-V curves, functions were fitted to data using a non-linear least squares analysis. I-V curves were fitted using double Boltzmann functions: f=a+g1/(1+exp((x−V1/21)/k1))+g2/(1+exp(−(x−V1/22)/k2)) where x is the prepulse potential, V1/2 is the mid-point potential and k is the corresponding slope factor for single Boltzmann functions. Double Boltzmann fits were used to describe the shape of the curve, not to imply the existence of separate channel populations. Numbers 1 and 2 simply indicate first and second mid-points; a along with g are fitting parameters.
# Activation curves were obtained from the I-V curves by dividing the peak current at each depolarizing step by the driving force according to the equation: G=I/(Vmem−Erev), where I is the peak current, Vmem is the membrane potential and Erev is the reversal potential. The conductance (G) was normalized against the maximum conductance (Gmax). Steady-state inactivation (SSI) curves were obtained by applying an H-infinity protocol that consisted of 1.5-seconds conditioning pre-pulses from −100 to +30 mV in 10-mV increments followed by a 20-millisecond test pulse to +10 mV. Inactivation curves were obtained by dividing the peak current recorded at the test pulse by the maximum current (Imax). Activation and SSI curves were fitted with the Boltzmann equation.
# [3] = molecular target: T1, CaV3.1 (Homo sapiens, UniProt O43497); experiment: Whole-cell patch clamp in HEK293T cells transiently expressing CaV3.1; type: cell-based; conditions: for effect on CaV3.1 mediated currents: 50 μM
# T1 construct: expressed in transfected cells; host or cells: HEK293T
# Protocol: (§1) Human embryonic kidney HEK293T cells were cultured in DMEM supplemented with 10% fetal bovine serum and 1% penicillin/streptomycin sulfate, maintained in standard conditions (5% CO2, 37° C., saturated humidity). Cells were transfected with 2 μg of either of the channel cDNAs using Lipofectamine 2000 when cell confluence reached 70-90%. Four to six hours after transfection, cells were seeded onto poly-l-lysine-coated coverslips. Positively transfected cells were indicated by the fluorescence of co-transfected enhanced green fluorescent protein (0.2 μg). All the experiments were performed 36 hours after cell transfection.
# (§2) For electrophysiological recording, the external solution contained (in mM): 105 CsCl, TEA-Cl, 2 CaCl2), 1 MgCl2, and 10 glucose (pH 7.4 adjusted with CsOH, and mOsm/L=295-305). The internal solution consisted of (in mM): 120 CsMeSO4, 11 EGTA, 2 Mg-ATP, and HEPES (pH 7.4 adjusted with CsOH, and mOsm/L=295-305). All experiments were conducted at room temperature (22-24° C.). The T-type calcium currents were elicited by a depolarization to −20 or −10 mV for 200-millisecond from a hold potential of −90 mV. Data were collected by the Patchmaster software in a HEKA EPC-10 USB patch-clamp system. Voltage errors were minimized by using 80% series resistance compensation. The capacitance artifact was canceled by using the computer-controlled circuitry of the patch-clamp amplifier. The concentration-response curves of the test compounds on CaV3 channels were fitted to a Hill equation to estimate the potency of the compounds (IC50).
# [4] = molecular target: T2, CaV3.2 (Homo sapiens, UniProt O95180); experiment: Whole-cell patch clamp in HEK293T cells transiently expressing CaV3.2; type: cell-based; conditions: for effect on CaV3.2 mediated currents: 50 μM
# T2 construct: expressed in transfected cells; host or cells: HEK293T
# Protocol: as §1, §2
# [5] = molecular target: T3, CaV3.3 (Homo sapiens, UniProt Q9P0X4); experiment: Whole-cell patch clamp in HEK293T cells transiently expressing CaV3.3; type: cell-based; conditions: for effect on CaV3.3 mediated currents: 50 μM
# T3 construct: expressed in transfected cells; host or cells: HEK293T
# Protocol: as §1, §2
# [6] = tested on: healthy rats; experiment: ALGOGram: healthy rats, paw pressure test; type: in vivo, rat; conditions: 0.4 μg/μl i.t., 120 min after treatment
# Protocol: (§3) The analgesic profile of 3-14-3-S was analyzed by an in vivo screening tool, ALGOGram™ (ANS Biotech, Riom, France). This platform allowed for obtaining information about the effects of compounds in 5 different pain areas (Acute and tonic pain, inflammatory pain, neuropathic pain, postoperative pain and visceral pain), by comparing their activity on a battery of 10 validated behavioral pain models with an ANS Biotech reference historical database (Table 1). Assessment of the efficacy, and analgesic effects of a single administration (0.4 μg/μl, i.t.) 3-14-3-S was analyzed in the rat models of. Tail flick test in healthy rats, paw pressure test in healthy rats, acetic acid-induced writhing, formalin test, Bennett model of peripheral mononeuropathy, oxaliplatin-induced neuropathy, carrageenan-induced mechanical hyperalgesia, kaolin-induced arthritis, Brennan model of incisional pain; and trinitrobenzene sulfonic acid (TNBS)-induced visceral hypersensitivity (Table 2).
# (§4) Testing: 120 min after treatment. n=4/model/test (excepted for 3-14-3-S-treated group in Oxaliplatin model n=3). Results are expressed for each group as a percentage of activity calculated from the mean value of the vehicle-treated animals and compared to naïve animals, control paw or cut-off value, depending on the test (from the ANS Biotech historical database). Ligand Docking
# [7] = tested on: healthy rats; experiment: ALGOGram: healthy rats, tail flick test; type: in vivo, rat; conditions: 0.4 μg/μl i.t., 120 min after treatment
# Protocol: as §3, §4
# [8] = tested on: rats; experiment: ALGOGram: acetic acid test (abdominal cramps); type: in vivo, rat; conditions: 0.4 μg/μl i.t., 120 min after treatment
# Protocol: as §3, §4
# [9] = tested on: rats; experiment: ALGOGram: formalin test (paw licking time); type: in vivo, rat; conditions: 0.4 μg/μl i.t., 120 min after treatment
# Protocol: as §3, §4
# [10] = tested on: rats; experiment: ALGOGram: Bennett model of peripheral mononeuropathy (paw pressure test); type: in vivo, rat; conditions: 0.4 μg/μl i.t., 120 min after treatment
# Protocol: as §3, §4
# [11] = tested on: rats; experiment: ALGOGram: oxaliplatin-induced neuropathy (paw immersion test); type: in vivo, rat; conditions: 0.4 μg/μl i.t., 120 min after treatment, n=3
# Protocol: as §3, §4
# [12] = tested on: rats; experiment: ALGOGram: carrageenan-induced mechanical hyperalgesia (paw pressure test); type: in vivo, rat; conditions: 0.4 μg/μl i.t., 120 min after treatment
# Protocol: as §3, §4
# [13] = tested on: rats; experiment: ALGOGram: TNBS-induced visceral hypersensitivity (colonic distension); type: in vivo, rat; conditions: 0.4 μg/μl i.t., 120 min after treatment
# Protocol: as §3, §4
# [14] = molecular target: influenza virus polymerase PA-PB1 protein-protein interactions (Influenza A virus, UniProt P03433); conditions: previously tested [93]; cited from earlier work
# [15] = tested on: rats; conditions: oxaliplatin, paw immersion test, 100 mg/kg p.o., T60 min; cited from earlier work
# [16] = tested on: rats; conditions: carrageenan, paw pressure test, 30 mg/kg p.o., T60 min; cited from earlier work
# [17] = tested on: rats; conditions: kaolin, gait score, 30 mg/kg p.o., T60 min; cited from earlier work
# [18] = tested on: healthy rats; conditions: paw pressure test, 4 mg/kg s.c., T30 min; cited from earlier work
# [19] = tested on: healthy rats; conditions: tail flick test, 4 mg/kg s.c., T30 min; cited from earlier work
# [20] = tested on: rats; conditions: formalin test, 4 mg/kg s.c., T30 min, cited from earlier work
# [21] = tested on: rats; conditions: Brennan model, electronic Von Frey test, 4 mg/kg s.c., T30 min; cited from earlier work
# T3 sequence (Q9P0X4 whole entry, species assumed): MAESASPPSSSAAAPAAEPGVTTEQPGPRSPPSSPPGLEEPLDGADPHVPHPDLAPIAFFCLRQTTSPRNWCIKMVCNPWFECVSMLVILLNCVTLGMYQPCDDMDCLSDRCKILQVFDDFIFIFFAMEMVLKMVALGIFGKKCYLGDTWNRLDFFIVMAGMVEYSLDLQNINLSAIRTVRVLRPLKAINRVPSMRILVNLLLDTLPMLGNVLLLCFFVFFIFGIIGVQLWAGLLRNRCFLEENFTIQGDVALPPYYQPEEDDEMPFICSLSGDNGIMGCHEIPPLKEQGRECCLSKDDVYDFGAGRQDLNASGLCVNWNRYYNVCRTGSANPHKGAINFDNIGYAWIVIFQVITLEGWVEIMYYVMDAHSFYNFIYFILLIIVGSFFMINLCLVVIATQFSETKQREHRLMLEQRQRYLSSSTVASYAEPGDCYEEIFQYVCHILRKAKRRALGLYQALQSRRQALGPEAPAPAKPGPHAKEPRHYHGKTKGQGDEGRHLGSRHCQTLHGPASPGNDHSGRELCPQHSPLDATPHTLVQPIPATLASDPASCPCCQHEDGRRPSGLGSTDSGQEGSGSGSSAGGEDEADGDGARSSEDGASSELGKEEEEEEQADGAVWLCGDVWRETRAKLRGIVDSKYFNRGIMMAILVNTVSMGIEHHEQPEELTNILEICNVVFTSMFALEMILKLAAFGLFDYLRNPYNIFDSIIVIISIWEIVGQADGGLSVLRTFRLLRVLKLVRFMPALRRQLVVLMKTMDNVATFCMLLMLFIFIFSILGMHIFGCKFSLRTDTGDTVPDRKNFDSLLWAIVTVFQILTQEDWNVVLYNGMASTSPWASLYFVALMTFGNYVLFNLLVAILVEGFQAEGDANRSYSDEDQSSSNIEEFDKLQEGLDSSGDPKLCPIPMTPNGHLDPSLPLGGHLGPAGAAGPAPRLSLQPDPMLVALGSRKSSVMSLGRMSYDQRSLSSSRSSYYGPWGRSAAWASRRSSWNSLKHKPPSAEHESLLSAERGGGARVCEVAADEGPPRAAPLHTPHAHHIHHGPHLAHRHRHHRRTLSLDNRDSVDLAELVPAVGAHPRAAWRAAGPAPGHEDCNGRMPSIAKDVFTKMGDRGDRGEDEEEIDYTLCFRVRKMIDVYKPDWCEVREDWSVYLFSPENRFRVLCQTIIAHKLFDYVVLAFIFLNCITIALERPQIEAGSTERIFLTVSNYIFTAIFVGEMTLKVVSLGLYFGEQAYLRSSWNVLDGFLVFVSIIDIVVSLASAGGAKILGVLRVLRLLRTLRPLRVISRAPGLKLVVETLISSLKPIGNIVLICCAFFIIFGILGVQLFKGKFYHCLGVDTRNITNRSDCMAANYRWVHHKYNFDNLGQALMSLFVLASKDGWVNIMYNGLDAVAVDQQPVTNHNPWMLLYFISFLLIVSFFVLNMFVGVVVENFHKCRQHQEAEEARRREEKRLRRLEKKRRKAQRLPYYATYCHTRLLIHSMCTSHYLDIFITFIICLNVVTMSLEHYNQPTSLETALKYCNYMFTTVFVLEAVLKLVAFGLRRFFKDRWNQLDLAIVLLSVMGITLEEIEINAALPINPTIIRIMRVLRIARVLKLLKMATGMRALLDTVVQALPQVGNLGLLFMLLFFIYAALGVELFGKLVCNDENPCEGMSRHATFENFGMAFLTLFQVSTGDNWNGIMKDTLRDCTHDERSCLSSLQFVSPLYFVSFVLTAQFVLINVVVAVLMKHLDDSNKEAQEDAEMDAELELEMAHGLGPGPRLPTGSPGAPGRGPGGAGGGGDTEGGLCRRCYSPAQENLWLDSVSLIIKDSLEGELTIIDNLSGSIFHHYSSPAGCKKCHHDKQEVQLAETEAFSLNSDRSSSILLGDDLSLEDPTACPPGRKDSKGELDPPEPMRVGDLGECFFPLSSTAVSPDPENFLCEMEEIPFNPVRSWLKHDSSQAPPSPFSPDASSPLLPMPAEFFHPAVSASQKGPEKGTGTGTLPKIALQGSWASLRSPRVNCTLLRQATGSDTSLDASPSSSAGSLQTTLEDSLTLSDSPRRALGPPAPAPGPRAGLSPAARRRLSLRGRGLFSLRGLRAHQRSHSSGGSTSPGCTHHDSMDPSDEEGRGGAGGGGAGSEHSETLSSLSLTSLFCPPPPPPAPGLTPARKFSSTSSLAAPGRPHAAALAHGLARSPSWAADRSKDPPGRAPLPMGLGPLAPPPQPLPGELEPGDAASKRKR
# T2 sequence (O95180 whole entry): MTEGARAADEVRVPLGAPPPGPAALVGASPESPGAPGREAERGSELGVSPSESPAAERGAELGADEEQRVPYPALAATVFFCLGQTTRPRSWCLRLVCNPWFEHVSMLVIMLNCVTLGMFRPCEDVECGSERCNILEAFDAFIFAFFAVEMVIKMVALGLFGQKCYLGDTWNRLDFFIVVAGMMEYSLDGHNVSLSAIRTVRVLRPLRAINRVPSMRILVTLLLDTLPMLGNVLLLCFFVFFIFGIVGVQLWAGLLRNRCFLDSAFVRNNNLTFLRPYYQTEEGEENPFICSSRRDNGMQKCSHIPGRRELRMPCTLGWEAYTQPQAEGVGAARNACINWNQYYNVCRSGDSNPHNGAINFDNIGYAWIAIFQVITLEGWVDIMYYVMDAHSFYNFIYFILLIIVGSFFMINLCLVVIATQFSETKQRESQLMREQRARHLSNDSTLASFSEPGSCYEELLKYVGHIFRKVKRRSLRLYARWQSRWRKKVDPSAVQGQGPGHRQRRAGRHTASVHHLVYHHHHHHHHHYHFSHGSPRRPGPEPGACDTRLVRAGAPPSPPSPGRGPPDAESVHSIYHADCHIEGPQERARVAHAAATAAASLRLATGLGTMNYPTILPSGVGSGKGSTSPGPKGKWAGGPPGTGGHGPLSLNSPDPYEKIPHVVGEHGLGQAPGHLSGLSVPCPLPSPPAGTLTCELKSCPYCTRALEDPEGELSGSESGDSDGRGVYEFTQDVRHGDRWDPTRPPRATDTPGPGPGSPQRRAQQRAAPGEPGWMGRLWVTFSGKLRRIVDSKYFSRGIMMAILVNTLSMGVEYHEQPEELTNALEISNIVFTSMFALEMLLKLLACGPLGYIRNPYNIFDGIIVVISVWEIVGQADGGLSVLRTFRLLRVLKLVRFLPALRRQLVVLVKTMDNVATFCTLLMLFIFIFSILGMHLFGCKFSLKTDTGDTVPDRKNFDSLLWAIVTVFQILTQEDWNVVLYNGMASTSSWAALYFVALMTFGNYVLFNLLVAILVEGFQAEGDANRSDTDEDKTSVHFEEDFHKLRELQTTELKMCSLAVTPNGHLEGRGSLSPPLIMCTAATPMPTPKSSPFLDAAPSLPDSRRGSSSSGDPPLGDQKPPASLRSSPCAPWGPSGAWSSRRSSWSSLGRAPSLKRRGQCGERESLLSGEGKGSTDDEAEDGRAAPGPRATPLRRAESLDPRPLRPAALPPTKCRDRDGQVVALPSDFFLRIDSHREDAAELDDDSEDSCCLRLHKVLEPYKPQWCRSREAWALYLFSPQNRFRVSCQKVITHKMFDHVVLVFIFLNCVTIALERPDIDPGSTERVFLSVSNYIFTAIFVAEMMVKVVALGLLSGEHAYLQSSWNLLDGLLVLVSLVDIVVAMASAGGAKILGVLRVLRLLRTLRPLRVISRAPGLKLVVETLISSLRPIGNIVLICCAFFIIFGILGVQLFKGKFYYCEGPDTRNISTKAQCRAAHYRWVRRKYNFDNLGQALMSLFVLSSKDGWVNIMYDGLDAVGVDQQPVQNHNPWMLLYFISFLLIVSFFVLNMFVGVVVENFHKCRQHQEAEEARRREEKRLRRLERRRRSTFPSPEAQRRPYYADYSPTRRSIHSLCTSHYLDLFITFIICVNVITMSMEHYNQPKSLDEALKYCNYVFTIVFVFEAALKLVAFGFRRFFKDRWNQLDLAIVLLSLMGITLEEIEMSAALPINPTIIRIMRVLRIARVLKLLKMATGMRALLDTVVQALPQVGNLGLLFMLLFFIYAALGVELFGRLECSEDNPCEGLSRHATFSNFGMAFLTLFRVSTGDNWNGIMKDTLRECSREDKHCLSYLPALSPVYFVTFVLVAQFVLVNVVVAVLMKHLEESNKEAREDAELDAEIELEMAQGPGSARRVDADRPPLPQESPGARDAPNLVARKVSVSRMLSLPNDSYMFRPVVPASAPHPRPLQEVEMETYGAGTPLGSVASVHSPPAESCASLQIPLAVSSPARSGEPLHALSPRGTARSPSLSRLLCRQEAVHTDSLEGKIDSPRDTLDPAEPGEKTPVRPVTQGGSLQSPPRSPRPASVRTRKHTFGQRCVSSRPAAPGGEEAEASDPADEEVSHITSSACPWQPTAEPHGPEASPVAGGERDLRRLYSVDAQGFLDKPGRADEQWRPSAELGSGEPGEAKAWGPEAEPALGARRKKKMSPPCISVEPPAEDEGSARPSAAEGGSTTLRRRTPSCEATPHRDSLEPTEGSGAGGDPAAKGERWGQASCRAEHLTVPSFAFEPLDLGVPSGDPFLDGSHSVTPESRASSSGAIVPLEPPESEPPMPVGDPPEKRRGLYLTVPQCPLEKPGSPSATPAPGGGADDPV
smiles,measurement,setting,value
O=C(Nc1cccc([C@H](c2nnnn2Cc2ccccc2)N2CCN(C(=O)c3ccco3)CC2)c1)c1ccc(Br)cc1 [1-159-2-R],"Ca2+ influx triggered with 90 mM KCl (response, normalized)",[1],67.37±2.294%
Cc1ccc([C@H](c2nnnn2Cc2ccccc2)N2CCN(C(=O)c3ccccc3)CC2)s1 [3-14-3-S],Activation V1/2,[2],4.083 ± 2.038 mV
same,Activation k (slope factor),[2],9.308 ± 1.780
same,Inactivation V1/2,[2],−25.246 ± 2.129 mV
same,Inactivation k (slope factor),[2],−12.570 ± 2.035
same,peak calcium current density,[2],−41.70±7.927 pA/pF
same,reduction in Ca2+ currents at peak current density,[2],~56.97%
same,effect on CaV3.1 mediated currents,[3],inhibited
same,IC50,[3]; depolarizing voltage of −10 mV,23 µM
same,effect on CaV3.2 mediated currents,[4],inhibited
same,IC50,[4]; depolarizing voltage of −10 mV,35.6 µM
same,effect on CaV3.3 mediated currents,[5],inhibited
same,IC50,[5]; depolarizing voltage of −10 mV,26.3 µM
same,Percentage of activity vs. vehicle,[6],3%
same,Percentage of activity vs. vehicle,[7],5%
same,Percentage of activity vs. vehicle,[8],33%
same,Percentage of activity vs. vehicle,[9]; paw licking time early phase,16%
same,Percentage of activity vs. vehicle,[9]; paw licking time late phase,36%
same,Percentage of activity vs. vehicle,[10],14%
same,Percentage of activity vs. vehicle,[11],6%
same,Percentage of activity vs. vehicle,[12],29%
same,Percentage of activity vs. vehicle,[13],−11%
same,"Ca2+ influx triggered with 90 mM KCl (response, normalized)",[1],87.25±2.245%
Cc1cccc(C)c1-n1nnnc1[C@@H](Cc1ccccc1)N1CCN(S(=O)(=O)c2ccccc2)CC1 [3-25-R],Activation V1/2,[2],2.383 ± 2.037 mV
same,Activation k (slope factor),[2],9.659 ± 1.798
same,Inactivation V1/2,[2],−26.709 ± 2.655 mV
same,Inactivation k (slope factor),[2],−15.208 ± 2.714
same,peak calcium current density,[2],−54.1±8.385 pA/pF
same,reduction in Ca2+ currents at peak current density,[2],~44.17%
same,effect on CaV3.1 mediated currents,[3],negligible effects
same,effect on CaV3.2 mediated currents,[4],negligible effects
same,effect on CaV3.3 mediated currents,[5],negligible effects
same,"Ca2+ influx triggered with 90 mM KCl (response, normalized)",[1],62.43±1.967%
"C[C@@H](c1ccccc1)n1nnnc1[C@H](c1ccsc1)N1CCC(n2c(=O)[nH]c3ccccc32)CC1 [5bl, 1-{1-[(S)-{1-[(1S)-1-phenylethyl]-1H-1,2,3,4-tetrazol-5-yl}(thiophen-3-yl)methyl]piperidin-4-yl}-2,3-dihydro-1H-1,3-benzodiazol-2-one]",inhibition of influenza virus polymerase PA-PB1 protein-protein interactions,[14],active
CNCC[C@H](Oc1cccc2ccccc12)c1cccs1 [Duloxetine],"Percentage of activity vs. vehicle, internal reference",[15],66%
COc1ccc2c(c1)c(CC(=O)O)c(C)n2C(=O)c1ccc(Cl)cc1 [Indomethacin],"Percentage of activity vs. vehicle, internal reference",[16],92%
same,"Percentage of activity vs. vehicle, internal reference",[17],64%
CN1CC[C@]23c4c5ccc(O)c4O[C@H]2[C@@H](O)C=C[C@H]3[C@H]1C5 [Morphine],"Percentage of activity vs. vehicle, internal reference",[18],67%
same,"Percentage of activity vs. vehicle, internal reference",[19],66%
same,"Percentage of activity vs. vehicle, internal reference",[20]; early phase,65%
same,"Percentage of activity vs. vehicle, internal reference",[20]; late phase,77%
same,"Percentage of activity vs. vehicle, internal reference",[21],107%
